The results in this text go back to ChEMBL document CHEMBL1128871, “Synthesis and in vitro cytotoxicity of ()-acetomycin and related analogs” (Bioorg Med Chem Lett, 1995).

Data set [1] relates to HT-29. In words: Tested for cytotoxic activity against HT-29 human colon adenocarcinoma cells in MTT assay. The data set is classed as functional, cell-based. Background: Tetrazolium dyes change colour on reduction, which living cells bring about.
Data set [2] has as its system MCF7. In words: Tested for cytotoxic activity against MCF7-WT human breast adenocarcinoma cells in MTT assay. It is filed as functional, cell-based.
Data set [3] concerns DA-3 cell line. Briefly: Tested for cytotoxic activity against DA-3 mouse mammary adenocarcinoma cells in MTT assay. The data set is classed as functional, cell-based.
In data set [4] the test system is B16. In words: Tested for cytotoxic activity against B16 mouse melanoma cells in MTT assay. It is filed as functional, cell-based.
Data set [5] deals with MCF7. Briefly: Tested for cytotoxic activity against MCF7-WT human breast adenocarcinoma cells in MTT assay. It is filed as functional, cell-based.
The nature of data set [6]: Half-life period was determined in mouse blood. The data set is classed as ADME, organism-based.

Each structure is given as a SMILES string. Where only a bound is given, the exact number is not on record here.

The term IC50 denotes the concentration that gives 50% inhibition. Low readings indicate greater potency in that assay, high ones weaker potency in that assay. For `CC(=O)O[C@@H]1OC(=O)[C@](Cc2ccccc2)(C(C)=O)[C@@H]1C`, the IC50 in data set [1] was 40 µM; in data set [2], 48 µM; in data set [3], 45 µM; in data set [4], 41 µM.

Take `CC(=O)O[C@@H]1OC(=O)[C@@H](C(C)=O)[C@@H]1C`: the concentration for half-maximal inhibition (IC50) in data set [1], in data set [5], in data set [3] and in data set [4] was greater than 50 µM throughout.

Consider `CC(=O)O[C@@H]1OC(=O)[C@](OC(C)=O)(C(C)=O)[C@@H]1C`, for which the IC50 in data set [1], in data set [5], in data set [3] and in data set [4] was greater than 50 µM in each case.

Take `CC(=O)O[C@@H]1OC(=O)[C@@](C)(C(=O)c2ccccc2)[C@@H]1C`: the IC50 was 7 µM in data set [1], 15 µM in data set [2], 15 µM in data set [3] and 7 µM in data set [4].

As to `CC(=O)O[C@@H]1OC(=O)[C@@](Cc2ccccc2)(C(C)=O)[C@@H]1C`, the IC50 was 39 µM in data set [1], 51 µM in data set [5], 44 µM in data set [3] and 45 µM in data set [4].

On to `CC(=O)[C@]1(C)C(=O)O[C@@H](OC(=O)c2ccccc2)[C@H]1C`, for which the IC50 turned out to be 6 µM in data set [1], 8 µM in data set [5], 2 µM in data set [3] and 5 µM in data set [4].

As to `CC(=O)O[C@@H]1OC(=O)[C@@](C(C)=O)(C2SCCCS2)[C@@H]1C`, the IC50 in data set [1], in data set [5], in data set [3] and in data set [4] was greater than 50 µM in each case.

In the case of `CC(=O)O[C@@H]1OC(=O)[C@](C)(C(=O)CBr)[C@@H]1C`, the IC50 in data set [1] worked out at 6 µM; in data set [5] it was 4 µM; in data set [3], 4 µM; in data set [4], 6 µM.

For `CC(=O)O[C@@H]1OC(=O)[C@](C)(C(C)=O)[C@@H]1C(C)C`, the IC50 in data set [1], in data set [5], in data set [3] and in data set [4] was greater than 50 µM throughout.

On to `CC(=O)[C@]1(C)C(=O)O[C@@H](OC(=O)C(C)(C)C)[C@H]1C`, for which the IC50 in data set [1] stood at 9 µM; in data set [5], 7 µM; in data set [3], 4 µM; in data set [4], 10 µM.

For the compound `CC(=O)O[C@@H]1OC(=O)[C@@](C)(C(C)=O)[C@@H]1C`, the IC50 in data set [1] was 12 µM; in data set [5], greater than 10 µM; in data set [3], 9 µM; in data set [4], 14 µM.

As to `CC(=O)O[C@@H]1OC(=O)[C@](OC(=O)c2ccccc2)(C(C)=O)[C@@H]1C`, the IC50 in data set [1] turned out to be 8 µM; in data set [5], 22 µM; in data set [3] it was 3 µM; in data set [4], 6 µM.

As usually defined, the half-life is the time needed for the level to fall by half in the phase considered. A higher half-life goes with slow loss. For the compound `CC(=O)[C@@]1(C)C(=O)O[C@@H](OC(=O)c2ccccc2)[C@H]1C`, the IC50 in data set [1] is 1 µM; in data set [5] it was 3 µM; in data set [3], 1 µM; in data set [4], 1 µM. Further, the half-life in data set [6] is less than 5 min.

As to `CC(=O)O[C@@H]1OC(=O)[C@@](OC(C)=O)(C(C)=O)[C@@H]1C`, the IC50 in data set [1], in data set [5], in data set [3] and in data set [4] was greater than 50 µM in each case.

Regarding `CC(=O)O[C@@H]1OC(=O)[C@@](O)(C(C)=O)[C@@H]1C`, the IC50 in data set [1], in data set [5], in data set [3] and in data set [4] was greater than 50 µM throughout.

With `CC(=O)O[C@@H]1OC(=O)[C@](O)(C(C)=O)[C@@H]1C`, the IC50 in data set [1], in data set [5], in data set [3] and in data set [4] was greater than 50 µM each time.

Take `CC(=O)[C@@]1(C)C(=O)O[C@@H](OC(=O)C(C)(C)C)[C@H]1C`: the IC50 is 2 µM in data set [1], 3 µM in data set [5], 1 µM in data set [3] and 2 µM in data set [4]. In addition, in data set [6], the half-life was less than 5 min.

Turning to `CCO[C@@H]1OC(=O)[C@](C)(C(C)=O)[C@@H]1C`, the IC50 in data set [1], in data set [5], in data set [3] and in data set [4] was greater than 50 µM throughout.

As for `CC(=O)O[C@@H]1OC(=O)[C@](C)(C(C)=O)[C@@H]1C`, the IC50 stood at 5 µM in data set [1], 6 µM in data set [5], 7 µM in data set [3] and 4 µM in data set [4]. In data set [6], this compound showed a half-life of less than 5 min.

In the case of `CC(=O)O[C@@H]1OC(=O)[C@@](C)(C(C)=O)[C@@H]1C(C)C`, the IC50 in data set [1], in data set [5], in data set [3] and in data set [4] was greater than 50 µM throughout.

On to `CC(=O)O[C@@H]1OC(=O)[C@](Br)(C(C)=O)[C@@H]1C`, for which the IC50 came to 12 µM in data set [1], 17 µM in data set [5], 6 µM in data set [3] and 9 µM in data set [4].

With `CCO[C@@H]1OC(=O)[C@@](C)(C(C)=O)[C@@H]1C`, the IC50 in data set [1], in data set [5], in data set [3] and in data set [4] was greater than 50 µM in each case.

Regarding `CC(=O)CC[C@]1(C(C)=O)C(=O)O[C@@H](OC(C)=O)[C@H]1C`, the IC50 was 7 µM in data set [1], 6 µM in data set [5], 8 µM in data set [3] and 7 µM in data set [4].
